Test results reported in publication PMC6571560, “Aldose Reductase, Protein Glycation Inhibitory and Antioxidant of Peruvian Medicinal Plants: The Case of Tanacetum parthenium L. and Its Constituents” (Molecules, 2019).

Experiments:
[1] = DPPH radical scavenging capacity
Procedure: The DPPH radical scavenging capacity assay method of Yin et al. was used. DPPH (0.32 mM) was diluted with MeOH, and this solution (180 µL) was mixed with 30 µL of the sample at each concentration. After 20 min of incubation in a darkroom, the absorbance at 570 nm was recorded on a microplate reader (EL800 Universal Microplate reader, Bio-Tek Instruments, Winooski, VT, USA). DPPH radical scavenging activity was expressed as the percentage inhibition (%) of DPPH in the aforementioned assay system and was calculated as (1 – B/A) × 100, in which A and B are the activities of DPPH without and with the test material, respectively.

[2] = target: T1, rat lens aldose reductase (RLAR) (Rattus norvegicus, UniProt P07943); assay: Rat lens aldose reductase (RLAR) inhibition, NADPH absorbance decrease at 340 nm; format: biochemical; conditions: for IC50: mean ± SEM, three independent experiments in duplicate
T1 construct: The supernatant was collected and used as the RLAR; from tissue; host or cells: lenses of Sprague-Dawley rats (homogenate supernatant)
Procedure: Crude RLAR was prepared as follows: lenses were removed from Sprague-Dawley rats (Weighing 250–280 g) and frozen at −70 °C until use. Non-cataractous transparent lenses were pooled, and a homogenate was prepared in 0.1 M phosphate-buffered saline (pH 6.2). The RLAR homogenate was then centrifuged at 10,000× gfor 20 min at 4 °C in a refrigerated centrifuge. The supernatant was collected and used as the RLAR [35]. This experiment was approved by the University of Hallym Animal Care and Use Committee (Registration Number: Hallym R2016-60). All of the procedures were conducted in accordance with the ‘Guide for Care and Use of Laboratory Animals’, published by the National Institutes of Health.
A total of 531 μL of 0.1 M potassium buffer (pH 7.0), 90 μL of NADPH solution (1.6 mM in potassium buffer), 90 μL of RLAR homogenate (6.5 U/mg), 90 μL of ammonium sulfate solution (4 M in potassium buffer), and 90 μL of DL-glyceraldehyde (25 mM in potassium buffer) were mixed with 9 μL of different concentrations of samples (1–0.1 mg/mL in dimethylsulfoxide (DMSO), Less than 1% in total mixture) in a cuvette, and the activity of RLAR was assessed spectrophotometrically by measuring the decrease in NADPH absorbance at 340 nm for 3 min using a spectrophotometer (SECOMAM, Ales Cedex, France).

[3] = test system: advanced glycation end products (AGEs) formation; assay: Bovine serum albumin-methylglyoxal assay for AGEs formation; format: biochemical; conditions: for IC50: table head prints no unit, μM
Procedure: BSA (50 mg/mL) was incubated with methylglyoxal (100 mM) in sodium phosphate buffer (0.1 M, pH 7.4) in the presence of various concentrations of the compounds (including a control) at 37 °C for 24 h. Then, the fluorescence intensity was measured at an excitation wavelength of 355 nm and an emission wavelength of 460 nm with a luminescence spectrometer (LS50B, Perkin–Elmer Ltd., Buckinghamshire, UK). […] All reagents and samples were sterilized by filtration through […] membrane filters.

[4] = target: T2, human recombinant aldose reductase (HRAR) (Homo sapiens, UniProt P15121); assay: Human recombinant aldose reductase ultrafiltration HPLC assay; format: binding; conditions: peak in TP extract (0.1 mg/mL) incubated with 3.9 μM HRAR
T2 construct: purchased Wako Pure Chemical Industries (Osaka, Japan)
Procedure: The inhibitory compounds of HRAR from TP were profiled by an AR ultrafiltration assay. Specifically, TP (at a final concentration of 0.1 mg/mL) was incubated with 0.6 M ammonium sulfate and 3.9 μM HRAR in a total volume of 300 μL at 37 °C for 30 min. Then, the incubated mixture was filtered by using a Microcon YM-10 centrifugal filter unit by centrifugation at 5167× g for 30 min at room temperature. The filtrate was subsequently analyzed by using the methods mentioned in the HPLC analysis section. A sample incubated without HRAR was used as a control. The relative binding affinity of the inhibitors from TP toward HRAR was defined as the “binding degree” (BD), which can be calculated as follows: BD (%) = (Aa − Ab)/Aa × 100, in which Aa and Ab are the peak areas of a compound without and with HRAR in the HPLC chromatograms, respectively.

DPPH-HPLC assay = conditions: peak in TP extract after reaction with DPPH, HPLC 254 nm
Procedure: The antioxidant compounds from TP were profiled with a DPPH-HPLC assay. TP (90 µL; 10.0 mg/mL) was mixed with 540 µL of DPPH solution (0.32 mM), and the mixed solution was then incubated at 37 °C for 20 min in a dark room. The solution was then filtered through a 0.45 µm membrane filter and then subjected to HPLC analysis. The HPLC conditions were the same as those described in the HPLC analysis section.

[5] = test system: sorbitol accumulation in rat lens; assay: Lens culture and sorbitol accumulation in rat lens; format: cell-based; conditions: compound 5 μg/mL, mean ± SD (n = 3); for Sorbitol Content (mg)/lens Wet Weight (g): rat lens cultured 6 d in 30 mM glucose; for inhibition at 5 µg/mL: rat lens cultured in 30 mM glucose
Procedure: Lenses isolated from 10-week-old Sprague-Dawley rats were cultured for 6 d in TC-199 medium that contained 15% fetal bovine serum, 100 units/mL penicillin, and 0.1 mg/mL streptomycin, under sterile conditions and an atmosphere of 5% CO2 and 95% air at 37 °C. The lenses were divided into three groups and cultured in medium containing 30 mM glucose and active compounds. Each lens was placed in a well containing 2.0 mL of medium. Sorbitol was determined by HPLC after derivatization by reaction with benzoic acid to a form of a fluorescent compound [37].

| Compound | IC50 [2] | AGEs Inhibition (%) ([3]; 20 μg/mL) | IC50 [3] | HRAR binding degree (%) [4] | DPPH PAR (%), peak area reduction (DPPH-HPLC assay) | Sorbitol Content (mg)/lens Wet Weight (g) [5] | inhibition at 5 µg/mL [5] | also measured |
| --- | --- | --- | --- | --- | --- | --- | --- | --- |
| O=C1O[C@H]([C@@H](O)CO)C(O)=C1O [L-ascorbic acid] | – | – | – | – | – | – | – | DPPH Inhibition (%) ([1]; 3 μg/mL): 33.71%; DPPH Inhibition (%) ([1]; 7.5 μg/mL): 58.34%; DPPH Inhibition (%) ([1]; 15 μg/mL): 97.23%; DPPH IC50 ([1]; mean ± SEM): 6.02 ± 0.37 µg/mL |
| COc1ccc(-c2oc3cc(O)c(OC)c(O)c3c(=O)c2OC)cc1 [Compound 7, santin] | > 28 µM | 13.15% | > 55 µM | 0% | 0% | – | – | IC50 ([1]; mean ± SEM): > 208 µM |
| N=C(N)NN [Aminoguanidine, aminoguanidine, reference compound] | – | 20.75% | – | – | – | – | – | AGEs Inhibition (%) ([3]; 100 μg/mL): 39.94%; AGEs Inhibition (%) ([3]; 200 μg/mL): 75.32%; AGEs IC50 ([3]; mean ± SEM): 121.96 ± 5.10 µg/mL |
| O=c1cc(-c2ccc(O)cc2)oc2cc(O)cc(O)c12 [Compound 2, apigenin] | 1.11 to 3.2 µM | 8.14% | > 55 µM | 15.00% | 11.28% | 0.19 ± 0.06 mg/g | 87.1 ± 2.37% | – |
| O=c1c(O)c(-c2ccc(O)c(O)c2)oc2cc(O)cc(O)c12 [Quercetin, quercetin, reference compound] | – | – | – | – | – | 0.21 ± 0.02 mg/g | 85.7 ± 5.71% | inhibition at 0.5 µg/mL ([2]; 0.5 μg/mL): 23.6%; inhibition at 1 µg/mL ([2]; 1 μg/mL): 44.8%; inhibition at 10 µg/mL ([2]; 10 μg/mL): 81.3% |
| O=c1c(O)c(-c2ccc(O)cc2)oc2cc(O)cc(O)c12 [Compound 6, kaempferol] | 1.11 to 3.2 µM | – | > 55 µM | 24.29% | 13.97% | 0.03 ± 0.00 mg/g | 98 ± 6.31% | – |
| O=c1cc(-c2ccc(O)c(O)c2)oc2cc(O[C@@H]3O[C@H](CO)[C@@H](O)[C@H](O)[C@H]3O)cc(O)c12 [Compound 3, luteolin-7-O-glucoside] | 1.11 to 3.2 µM | – | – | 26.58% | 16.85% | 0.07 ± 0.01 mg/g | 95.2 ± 5.97% | AGEs inhibition potency relative to aminoguanidine (times higher) ([3]; ratio of IC50 values): 32.23 times |
| O=c1cc(-c2ccc(O)c(O)c2)oc2cc(O)cc(O)c12 [Compound 4, luteolin] | – | – | – | 38.02% | 29.36% | 0.12 ± 0.02 mg/g | 91.8 ± 5.23% | – |
| COc1cc2oc(-c3ccc(O)c(O)c3)c(OC)c(=O)c2c(O)c1OC [Compound 5, chrysosplenol] | 1.11 to 3.2 µM | 5.38% | > 55 µM | 25.54% | 7.19% | 0.26 ± 0.03 mg/g | 82.3 ± 2.39% | IC50 ([1]; mean ± SEM, listed as Chrysosplenol (5)): > 250 µM |
| COc1cc(/C=C/C(=O)O)ccc1O [Compound 1, ferulic acid] | 1.11 to 3.2 µM | – | – | 27.08% | 23.53% | 0.29 ± 0.03 mg/g | 80.3 ± 2.38% | – |
